# Patent US20230293639A1, “SYSTEMS, DEVICES, COMPOSITIONS, AND METHODS FOR TREATING DIABETES” (Abvance Therapeutics, Inc., priority 2020, published 2023)
# Tested on: patients with Type 1 diabetes
# Assay: Liquid meal challenge with IV insulin alone or IV insulin-glucagon co-infusion (4:1)
# Assay type: in vivo, human
# Details: for Requiring IV glucose rescue: subjects of eleven, rescue if plasma glucose dropped to 50 mg/dl
# Description: Referring now to FIG. 12, a study protocol conducted by the applicant in human patients with Type 1 diabetes is illustrated, consistent with the present inventive concepts. […] The liquid meal challenge allows a clinically relevant assessment of plasma glucose rise and fall. […] By protocol, if plasma glucose dropped to 50 mg/dl, a variable glucose infusion was applied to maintain the glucose level at approximately 50 mg/dl, to avoid more serious hypoglycemia from occurring.
# FIG. 13 illustrates the glucose excursion following the meal challenge for eleven patients (also referred to as “subjects” herein). […] The glucose excursion data is also presented below in Table 1, which compares peak plasma glucose levels and AUCs (area under curve) for the two treatment groups.
substance,measurement,setting,value
insulin,subjects that had to be rescued,7 subjects whose glucose fell below the pre-meal value in the last 30 minutes,5
same,average glucose infusion rate,"7 subjects whose glucose fell below the pre-meal value, last 30 minutes",5.9 ± 2.2 mg/kg/min
same,Time <70 mg/dl,eleven Type 1 diabetes patients,20 ± 7%
same,ΔPG 0-120AUC,"eleven Type 1 diabetes patients, 0-120 min after liquid meal",8162 ± 1514 mg·min/dL
same,ΔPG 0-180AUC,"eleven Type 1 diabetes patients, 0-180 min after liquid meal",10501 ± 3014 mg·min/dL
same,Peak PG,"eleven Type 1 diabetes patients, after liquid meal",224 ± 18 mg/dL
same,Fasting PG,"eleven Type 1 diabetes patients, before liquid meal",121 ± 5 mg/dL
same,sympathetic central nervous system response to hypoglycemia (venous plasma norepinephrine and epinephrine),four patients,elevations of venous plasma norepinephrine and epinephrine
same,average glucose infusion rate over the last 30 minutes,in all subjects (eleven-subject comparison),3.8 ± 1.6 mg/kg/min
same,PG nadir,lowest point during insulin-alone arm vs equivalent time point during insulin-glucagon arm,51 ± 4.0 mg/dL
same,average plasma glucose nadir,"seven subjects with plasma glucose <80 mg/dl in insulin-alone arm, matching time point in insulin-glucagon arm",50 ± 4 mg/dL
same,Requiring IV glucose rescue,listed as Insulin-Alone,5/11
same,Requiring IV glucose rescue,listed as insulin-alone,Five of eleven
same,patients rescued with glucose infusions,subset of four patients with more complete hormone analysis,Three out of the four
